According to ChEMBL document CHEMBL4311997, “Discovery of a potent histone deacetylase (HDAC) 3/6 selective dual inhibitor” (Eur J Med Chem, 2019):
Active and inactive are the calls of the source. The rule behind the calls is not given here.

How the values were obtained:
[1] = tested on: MDA-MB-231; assay: Antiproliferative activity against human MDA-MB-231 cells incubated for 72 hrs by MTT assay; assay type: functional, cell-based; details: MDA-MB-231, 72 h
[2] = target: Histone deacetylase 1 (Homo sapiens, UniProt Q13547)
Description: Inhibition of human HDAC1 using Arg-His-Lys-Lys (Ac) as substrate incubated for 2 hrs by fluorescence assay

[3] = target: Protein deacetylase HDAC6 (Homo sapiens) (UniProt Q9UBN7); assay: Potency index, ratio of IC50 for vorinostat to IC50 for test compound for human HDAC6
[4] = Selectivity index, ratio of EC50 for human MDA-MB-231 cells to IC50 for ring stage Plasmodium falciparum K1; assay type: functional; set-up: reference not given here
[5] = target: T1, Protein deacetylase HDAC6 (Homo sapiens, UniProt Q9UBN7); assay: Inhibition of human HDAC6 using Arg-His-Lys-Lys (Ac) as substrate incubated for 2 hrs by fluorescence assay
T1 sequence (Q9UBN7 whole entry): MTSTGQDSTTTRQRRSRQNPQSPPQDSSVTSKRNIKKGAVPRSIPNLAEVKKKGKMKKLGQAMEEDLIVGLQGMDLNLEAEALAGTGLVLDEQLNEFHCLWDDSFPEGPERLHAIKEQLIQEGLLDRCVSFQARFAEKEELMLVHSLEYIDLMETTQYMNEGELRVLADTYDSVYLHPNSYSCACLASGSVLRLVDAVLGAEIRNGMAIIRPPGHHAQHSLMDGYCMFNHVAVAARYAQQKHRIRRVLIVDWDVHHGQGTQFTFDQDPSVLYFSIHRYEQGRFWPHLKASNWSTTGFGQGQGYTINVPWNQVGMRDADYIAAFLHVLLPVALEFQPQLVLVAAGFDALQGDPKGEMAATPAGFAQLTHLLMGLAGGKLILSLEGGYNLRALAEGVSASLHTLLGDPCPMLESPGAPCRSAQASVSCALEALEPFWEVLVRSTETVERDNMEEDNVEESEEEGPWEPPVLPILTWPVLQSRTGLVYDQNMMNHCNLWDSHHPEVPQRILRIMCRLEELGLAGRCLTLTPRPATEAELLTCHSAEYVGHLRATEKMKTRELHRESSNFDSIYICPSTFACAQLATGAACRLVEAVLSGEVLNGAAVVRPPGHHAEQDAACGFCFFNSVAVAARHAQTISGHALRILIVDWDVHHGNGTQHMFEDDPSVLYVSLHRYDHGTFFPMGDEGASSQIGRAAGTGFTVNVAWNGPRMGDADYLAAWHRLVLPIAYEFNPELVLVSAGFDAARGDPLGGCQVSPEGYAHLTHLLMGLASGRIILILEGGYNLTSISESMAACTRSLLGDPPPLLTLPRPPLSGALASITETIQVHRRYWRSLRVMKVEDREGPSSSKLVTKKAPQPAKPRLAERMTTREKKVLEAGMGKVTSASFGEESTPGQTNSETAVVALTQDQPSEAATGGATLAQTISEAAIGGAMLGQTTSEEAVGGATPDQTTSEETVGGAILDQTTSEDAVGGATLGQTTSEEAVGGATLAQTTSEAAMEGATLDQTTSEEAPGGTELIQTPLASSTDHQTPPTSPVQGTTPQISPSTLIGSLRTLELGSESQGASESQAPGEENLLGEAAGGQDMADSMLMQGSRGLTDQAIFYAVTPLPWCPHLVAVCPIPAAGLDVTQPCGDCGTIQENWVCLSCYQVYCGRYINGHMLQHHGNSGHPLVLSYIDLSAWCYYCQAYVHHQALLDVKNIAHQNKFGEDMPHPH

[6] = tested on: Plasmodium falciparum; assay: microbe, parasite or virus in culture; assay type: functional, organism-based; details: K1, 48 h
Description: Antimalarial activity against ring stage Plasmodium falciparum K1 incubated for 48 hrs by Hoechst 33342 staining based fluorescence based assay

[7] = Selectivity index, ratio of EC50 for human MDA-MB-231 cells to IC50 for ring stage Plasmodium falciparum 3D7; assay type: functional; set-up: reference not given here
[8] = tested on: Plasmodium falciparum; assay: microbe, parasite or virus in culture; assay type: functional, organism-based; details: 3D7, 48 h
Description: Antimalarial activity against ring stage Plasmodium falciparum 3D7 incubated for 48 hrs by Hoechst 33342 staining based fluorescence based assay

[9] = tested on: MCF7; assay: Antiproliferative activity against human MCF7 cells incubated for 72 hrs by MTT assay; assay type: functional, cell-based; details: MCF7, 72 h
[10] = target: Histone deacetylase 1/2/3 (Homo sapiens, UniProt Q13547+O15379+Q92769); assay: Inhibition of HDAC1/2/3 in human KMS-12-BM cells assessed as increase in Ac-H3 level at 2 to 10 uM incubated for 24 hrs by Western blot analysis; assay type: cell-based
[11] = tested on: KMS-12-BM; assay: Effect on human KMS-12-BM cells assessed as inhibition in H3K9Me2 level at 2 to 10 uM incubated for 24 hrs by Western blot analysis; assay type: functional, cell-based
[12] = tested on: OPM-2; assay: Antiproliferative activity against human OPM2 cells incubated for 48 hrs by CellTiter-Glo luminescent cell viability assay; assay type: functional, cell-based; details: OPM-2, 48 h
[13] = tested on: MDA-MB-231; assay: Induction of apoptosis in human MDA-MB-231 cells assessed as late apoptotic cells at 1 uM incubated for 48 hrs by Annexin V-FITC/PI staining by flow cytometric analysis (reference value: 3%); assay type: functional
[14] = tested on: MDA-MB-231; assay: Induction of apoptosis in human MDA-MB-231 cells assessed as viable cells at 1 uM incubated for 48 hrs by Annexin V-FITC/PI staining by flow cytometric analysis (reference value: 77%); assay type: functional; details: MDA-MB-231, 48 h, read-out: Activity
[15] = tested on: MDA-MB-231; assay: Induction of apoptosis in human MDA-MB-231 cells assessed as necrotic cells at 1 uM incubated for 48 hrs by Annexin V-FITC/PI staining by flow cytometric analysis (reference value: 15%); assay type: functional
[16] = tested on: MDA-MB-231; assay: Induction of apoptosis in human MDA-MB-231 cells assessed as early apoptotic cells at 1 uM incubated for 48 hrs by Annexin V-FITC/PI staining by flow cytometric analysis (reference value: 5%); assay type: functional

Chain of Histone deacetylase 1 (Q13547 whole entry): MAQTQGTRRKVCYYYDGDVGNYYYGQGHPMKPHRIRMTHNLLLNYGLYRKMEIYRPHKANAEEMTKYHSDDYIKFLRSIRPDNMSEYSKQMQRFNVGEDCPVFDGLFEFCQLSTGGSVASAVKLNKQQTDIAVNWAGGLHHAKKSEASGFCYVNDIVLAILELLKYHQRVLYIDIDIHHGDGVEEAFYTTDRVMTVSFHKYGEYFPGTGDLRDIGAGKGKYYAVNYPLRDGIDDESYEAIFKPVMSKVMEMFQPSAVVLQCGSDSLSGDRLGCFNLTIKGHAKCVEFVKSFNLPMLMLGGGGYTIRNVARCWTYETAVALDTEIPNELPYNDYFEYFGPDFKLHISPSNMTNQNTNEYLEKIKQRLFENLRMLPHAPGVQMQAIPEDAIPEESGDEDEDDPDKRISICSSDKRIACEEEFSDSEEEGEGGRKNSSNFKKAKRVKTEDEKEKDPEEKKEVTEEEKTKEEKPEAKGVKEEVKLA

Compound | EC50 [1] | IC50 [2] | IC50 [5] | IC50 [6] | IC50 [8] | EC50 [9] | Selectivity Index [4] | Selectivity Index [7] | other results
COc1cc2nc(N3CCCN(C)CC3)nc(NC3CCN(Cc4ccccc4)CC3)c2cc1OC | 2900 nM | – | – | – | 152 nM | 3300 nM | – | – | inhibition [10]: inactive; Activity [11]: Active
COc1cc2nc(N3CCN(C(=O)CCCCCCC(=O)NO)CC3)nc(NC3CCN(Cc4ccccc4)CC3)c2cc1OC | 7000 nM | 3080 nM | 35.5 nM | – | – | 7700 nM | – | – | –
O=C(CCCCCCC(=O)Nc1ccccc1)NO [VORINOSTAT] | – | – | – | – | – | – | – | – | EC50 [12]: 2900 nM
COc1cccc2c1C(=O)c1c(O)c3c(c(O)c1C2=O)C[C@@](O)(C(=O)CO)C[C@@H]3O[C@H]1C[C@H](N)[C@H](O)[C@H](C)O1 [DOXORUBICIN] | – | – | – | – | – | – | – | – | Activity [13]: 92%; viability at 1 µM [14]: 1%; Activity [15]: 6%; Activity [16]: 1%

Now from value to compound, other results behind:

EC50 [1] | IC50 [2] | IC50 [5] | IC50 [6] | IC50 [8] | EC50 [9] | Compound | Selectivity Index [4] | Selectivity Index [7] | other results
5100 nM | 1030 nM | < 0.5 nM | 878 nM | 200 nM | 12000 nM | COc1cc2nc(Nc3ccc(NC(=O)CCCCCCC(=O)NO)cc3)nc(NC3CCN(Cc4ccccc4)CC3)c2cc1OC | 6 | 26 | Ratio IC50 [3]: 40
4100 nM | 3370 nM | 9.09 nM | 489 nM | 96 nM | 4900 nM | COc1cc2nc(Nc3ccc(NC(=O)CCCCCCC(=O)NO)cc3)nc(NC3CCN(Cc4ccccc4Cl)CC3)c2cc1OC | 8 | 43 | –
2900 nM | 233 nM | 5.9 nM | – | – | 2900 nM | O=C(CCCCCCC(=O)Nc1ccc(Nc2nc(NC3CCN(Cc4ccccc4)CC3)c3sccc3n2)cc1)NO | – | – | –
4900 nM | 2150 nM | 7.98 nM | 296 nM | 111 nM | 4900 nM | COc1cc2nc(Nc3ccc(NC(=O)CCCCCCC(=O)NO)cc3)nc(NC3CCN(Cc4ccc(F)cc4)CC3)c2cc1OC | 17 | 44 | –
